Assays:
LN229 tumors [1] = experiment: Immune cells infiltration in LN229 tumors from xenograft mice; format: in vivo, mouse
Kras G12D mice = conditions: mouse, in vivo, po
Source text: FIG. 13 depicts MRI of lung tumors in mice. The axial images were taken by 9.4 T MRI; RARE T2-weighted; slice thickness=1 mm; total slice number=24. The scan started from neck to bottom of ribs. The tumor size ≥1 mm is detectable by this scan. H, heart; S, spine; Arrow: lung tumor;
In the present Kras-driven lung cancer model, since mice carry homozygous mutant Kras are embryonic lethal, all Kras mice bred are heterozygous Kras^+/G12D that one genetic engineering allele can synthesize the Kras G12D protein by “hit-and-run” recombination and cause cancers spontaneously (FIG. 11A). According to previous reports and experience, lung lesions could be found in mice as young as one-week old. In this group of mice, 100% of the mice will develop lung cancer between 15 to 40 weeks of age (FIG. 11B), and about 30% may also develop thymic lymphoma and papilloma (Nature; 410:6832; 1111-6, 2001). […]
In this study, 10-week old, female, Kras G12D mice were chosen; which lung cancer had not been well developed in at this age. […] After consecutive treatments for 120 days, treatment for mice that reached 28 weeks old was stopped in both groups and the mice were monitored and weighed continuously. […]

[2] = oral administration, short-term and long-term feeding; cited from earlier work
LN229 tumors [3] = experiment: Metabolite analysis (Metabolon) of LN229 tumor samples; format: in vivo, mouse; conditions: EM+M4N+TMZ1/2 versus EM+TMZ1/2 schedule
[4] = system: LN229 tumor xenograft mice; experiment: Cytokine profiles in serum of treated LN229 xenograft nude mice; format: in vivo, mouse; conditions: sera from LN229 tumor xenograft mice
[5] = daily (1 mg/day) IV injection, nude mice carrying human tumor xenografts; cited from earlier work
malignant gliomas = conditions: cited from earlier work

Compound | tumor infiltrating immune cells in the tumor microenvironment (LN229 tumors [1]) | weight loss during treatment (Kras G12D mice) | M4N concentration in mouse organs [2] | effect on metabolic pathways of the tumor (LN229 tumors [3]) | level of IL-21 in sera (in words) [4] | M4N levels accumulated in blood and tumors [5] | survival rate at 2 years (malignant gliomas; radiotherapy and chemotherapy, radiotherapy alone 10.4%) | dose-limiting toxicity (malignant gliomas; systemic exposure, specifically thrombocytopenia and neutropenia)
COc1ccc(C[C@@H](C)[C@@H](C)Cc2ccc(OC)c(OC)c2)cc1OC [M4N, Tetra-O-methyl nordihydroguaiaretic acid] | Tumor infiltrating macrophages and B cells | no significant weight loss | ≤ 906 μg/g of tissue | suppressed most of the metabolic pathways | significantly increased | above 1 mM |  | 
Cn1nnc2c(C(N)=O)ncn2c1=O [TMZ, 3,4-dihydro-3-methyl-4-oxoimidazo[5,1-d]-1,2,3,5-tetrazine-8-carboxamide] |  |  |  |  |  |  | 26.5% | hematological toxicity
